Reference: patent US7851474B2, “Dipiperazinyl ketones and related analogues” (Neurogen Corporation, priority 2005, dated 2010)

Target: T1, chimeric human H3 receptor (Homo sapiens, UniProt Q9Y5N1, E19D)
T1 construct: made in house; host or cells: Sf9 insect cells (baculovirus infection); P2 membrane preparation
Assay: Chimeric human H3 receptor GTP binding assay (agonist-stimulated GTP-gamma35S binding, Example 7)
Type: biochemical
Conditions: Table II; assay of Example 7; "*" in Ki; read-out: Ki
Procedure, shortened: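 IC50 values come from non-linear regression of dose-response curves of filter-bound GTP-gamma^35S, counted by scintillation. Membranes were from infected Sf9 cells carrying receptor plus G-protein subunits, 35 μg/tube, with 10 μM GDP present.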

T1 sequence (Q9Y5N1 with tags, fused parts or gaps E19D): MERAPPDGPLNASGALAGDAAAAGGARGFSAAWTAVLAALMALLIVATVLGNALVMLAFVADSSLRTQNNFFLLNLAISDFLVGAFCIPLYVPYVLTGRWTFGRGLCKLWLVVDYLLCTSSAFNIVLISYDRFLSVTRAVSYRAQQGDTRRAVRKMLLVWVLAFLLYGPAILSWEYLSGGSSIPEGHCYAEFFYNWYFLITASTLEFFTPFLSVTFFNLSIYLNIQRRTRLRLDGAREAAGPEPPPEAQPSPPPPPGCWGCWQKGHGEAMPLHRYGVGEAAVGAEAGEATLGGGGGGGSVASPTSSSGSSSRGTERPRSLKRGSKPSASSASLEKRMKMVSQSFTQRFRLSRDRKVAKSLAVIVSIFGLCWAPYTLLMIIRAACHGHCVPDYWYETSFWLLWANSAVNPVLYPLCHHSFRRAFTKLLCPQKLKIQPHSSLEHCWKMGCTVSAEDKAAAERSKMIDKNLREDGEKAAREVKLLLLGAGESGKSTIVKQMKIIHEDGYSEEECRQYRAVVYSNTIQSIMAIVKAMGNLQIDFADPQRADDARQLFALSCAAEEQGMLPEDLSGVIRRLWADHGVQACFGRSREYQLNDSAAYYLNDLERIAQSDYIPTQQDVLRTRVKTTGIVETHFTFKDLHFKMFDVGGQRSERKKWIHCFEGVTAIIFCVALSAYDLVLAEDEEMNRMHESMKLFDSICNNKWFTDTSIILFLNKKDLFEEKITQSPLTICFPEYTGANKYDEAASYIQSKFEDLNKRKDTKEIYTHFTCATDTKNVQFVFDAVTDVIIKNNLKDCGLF

Ki, < 1000 nM:
O=C(CN1CCN(c2cnc(-c3ccc(C(F)(F)F)cc3)cn2)CC1)N1CCN(C2CCC2)CC1 [Compound 975, 2-{4-[2-(4-cyclobutylpiperazin-1-yl)-2-oxoethyl]piperazin-1-yl}-5-[4-(trifluoromethyl)phenyl] pyrazine]
O=C(CN1CCN(c2cnc(-c3cccc(C(F)(F)F)c3)cn2)CC1)N1CCN(C2CCC2)CC1 [Compound 976, 2-{4-[2-(4-cyclobutylpiperazin-1-yl)-2-oxoethyl]piperazin-1-yl}-5-[3-(trifluoromethyl)phenyl] pyrazine]
O=C(CN1CCN(c2ncc(F)cn2)CC1)N1CCN(C2CCCC2)CC1 [Compound 977, 2-{4-[2-(4-cyclopentylpiperazin-1-yl)-2-oxoethyl]piperazin-1-yl}-5-fluoropyrimidine]
O=C(CN1CCN(c2nc3ccccc3n2Cc2ccc(F)cc2)CC1)N1CCN(C2CCCC2)CC1 [Compound 978, 2-{4-[2-(4-cyclopentylpiperazin-1-yl)-2-oxoethyl]piperazin-1-yl}-1-(4-fluorobenzyl)-1H-benzimidazole]
CCC(C)N1CCN(C(=O)CN2CCN(c3ncc(F)cn3)CC2)CC1 (stereo not shown) [Compound 979, 2-{4-[2-(4-sec-butylpiperazin-1-yl)-2-oxoethyl]piperazin-1-yl}-5-fluoropyrimidine]
O=C(CN1C=CC2(CC1)c1ccccc1C(=O)N2Cc1ccccc1)N1CCN(C2CCC2)CC1 (stereo not shown) [Compound 980, 2-benzyl-1′-[2-(4-cyclobutylpiperazin-1-yl)-2-oxoethyl]-2′,′3-dihydro-1′H-spiro[isoindole-1,4′-pyridin]-3(2H)-one]
O=C(CN1CCC2(CC1)c1ccccc1C(=O)N2Cc1ccccc1)N1CCN(C2CCC2)CC1 [Compound 981, 2-benzyl-1′-[2-(4-cyclobutylpiperazin-1-yl)-2-oxoethyl]spiro[isoindole-1,4′-piperidin]-3(2H)-one]
O=C(CN1CCC2(CC1)CC(=O)N(Cc1ccccc1)C2=O)N1CCN(C2CCC2)CC1 [Compound 982, 2-benzyl-8-[2-(4-cyclobutylpiperazin-1-yl)-2-oxoethyl]-2,8-diazaspiro[4.5]decane-1,3-dione]
O=C(CN1CCN(c2cnc(Br)cn2)CC1)N1CCN(C2CCC2)CC1 [Compound 983, 2-bromo-5-{4-[2-(4-cyclobutylpiperazin-1-yl)-2-oxoethyl]piperazin-1-yl}pyrazine]
O=C(CN1CCC2(CC1)c1ccccc1C(=O)N2C1CCC1)N1CCN(C2CCC2)CC1 [Compound 984, 2-cyclobutyl-1′-[2-(4-cyclobutylpiperazin-1-yl)-2-oxoethyl]spiro[isoindole-1,4′-piperidin]-3(2H)-one]
O=C(CN1CCN(c2ccc(-c3ccc4c(c3)OCO4)nn2)CC1)N1CCN(C2CCC2)CC1 [Compound 986, 3-(1,3-benzodioxol-5-yl)-6-{4-[2-(4-cyclobutylpiperazin-1-yl)-2-oxoethyl]piperazin-1-yl}pyridazine]
O=C(CN1CCN(c2ccc(-c3ccc(F)c(Cl)c3)nn2)CC1)N1CCN(C2CCC2)CC1 [Compound 987, 3-(3-chloro-4-fluorophenyl)-6-{4-[2-(4-cyclobutylpiperazin-1-yl)-2-oxoethyl]piperazin-1-yl}pyridazine]
O=C(CN1CCN(c2ccc(-c3cccc(Cl)c3)nn2)CC1)N1CCN(C2CCC2)CC1 [Compound 988, 3-(3-chlorophenyl)-6-{4-[2-(4-cyclobutylpiperazin-1-yl)-2-oxoethyl]piperazin-1-yl}pyridazine]
CCCCc1ccc(-c2ccc(N3CCN(CC(=O)N4CCN(C5CCC5)CC4)CC3)nn2)cc1 [Compound 989, 3-(4-butylphenyl)-6-{4-[2-(4-cyclobutylpiperazin-1-yl)-2-oxoethyl]piperazin-1-yl}pyridazine]
O=C(CN1CCN(c2ccc(-c3ccc(Cl)c(F)c3)nn2)CC1)N1CCN(C2CCC2)CC1 [Compound 990, 3-(4-chloro-3-fluorophenyl)-6-{4-(2-(4-cyclobutylpiperazin-1-yl)-2-oxoethyl]piperazin-1-yl}pyridazine]
O=C(CN1CCN(c2ccc(-c3ccc(Cl)cc3)nn2)CC1)N1CCN(C2CCC2)CC1 [Compound 991, 3-(4-chlorophenyl)-6-{4-[2-(4-cyclobutylpiperazin-1-yl)-2-oxoethyl]piperazin-1-yl}pyridazine]
CC(C)(C)c1ccc(-c2ccc(N3CCN(CC(=O)N4CCN(C5CCC5)CC4)CC3)nn2)cc1 [Compound 992, 3-(4-tert-butylphenyl)-6-{4-[2-(4-cyclobutylpiperazin-1-yl)-2-oxoethyl]piperazin-1-yl}pyridazine]
CN(C)c1cccc(-c2cnc(N3CCN(CC(=O)N4CCN(C5CCC5)CC4)CC3)cn2)c1 [Compound 993, 3-(5-{4-[2-(4-cyclobutylpiperazin-1-yl)-2-oxoethyl]piperazin-1-yl}pyrazin-2-yl)-N,N-dimethylaniline]
N#Cc1cccc(-c2cnc(N3CCN(CC(=O)N4CCN(C5CCC5)CC4)CC3)cn2)c1 [Compound 994, 3-(5-{4-[2-(4-cyclobutylpiperazin-1-yl)-2-oxoethyl]piperazin-1-yl}pyrazin-2-yl)benzonitrile]
COc1ccc(Cl)cc1-c1ccc(N2CCN(CC(=O)N3CCN(C4CCC4)CC3)CC2)nn1 [Compound 995, 3-(5-chloro-2-methoxyphenyl)-6-{4-[2-(4-cyclobutylpiperazin-1-yl)-2-oxoethyl]piperazin-1-yl}pyridazine]
CN(C)c1cccc(-c2ccc(N3CCN(CC(=O)N4CCN(C5CCC5)CC4)CC3)nn2)c1 [Compound 996, 3-(6-{4-[2-(4-cyclobutylpiperazin-1-yl)-2-oxoethyl]piperazin-1-yl}pyridazin-3-yl)-N,N-dimethylaniline]
N#Cc1cccc(-c2ccc(N3CCN(CC(=O)N4CCN(C5CCC5)CC4)CC3)nn2)c1 [Compound 997, 3-(6-{4-[2-(4-cyclobutylpiperazin-1-yl)-2-oxoethyl]piperazin-1-yl}pyridazin-3-yl)benzonitrile]
O=C(CN1CCN(c2ccc(-c3cc(C(F)(F)F)cc(C(F)(F)F)c3)nn2)CC1)N1CCN(C2CCC2)CC1 [Compound 998, 3-[3,5-bis(trifluoromethyl)phenyl]-6-{4-[2-(4-cyclobutylpiperazin-1-yl)-2-oxoethyl]piperazin-1-yl}pyridazine]
COc1ccc(N2CCN(CC(=O)N3CCN(C4CCC4)CC3)CC2)nn1 [Compound 999, 3-{4-[2-(4-cyclobutylpiperazin-1-yl)-2-oxoethyl]piperazin-1-yl}-6-methoxypyridazine]
O=C(CN1CCN(c2ccc(-c3ccncc3)nn2)CC1)N1CCN(C2CCC2)CC1 [Compound 1000, 3-{4-[2-(4-cyclobutylpiperazin-1-yl)-2-oxoethyl]piperazin-1-yl}-6-pyridin-4-ylpyridazine]
O=C(CN1CCN(c2ccc(-c3cncnc3)nn2)CC1)N1CCN(C2CCC2)CC1 [Compound 1001, 3-{4-[2-(4-cyclobutylpiperazin-1-yl)-2-oxoethyl]piperazin-1-yl}-6-pyrimidin-5-ylpyridazine]
O=C(CN1CCN(c2ccc(-c3ccccc3)nn2)CC1)N1CCN(C2CCC2)CC1 [Compound 1002, 3-{4-[2-(4-cyclobutylpiperazin-1-yl)-2-oxoethyl]piperazin-1-yl}-6-phenylpyridazine]
O=C(CN1CCN(c2ccc(-c3ccc(F)cc3)nn2)CC1)N1CCN(C2CCC2)CC1 [Compound 1003, 3-{4-[2-(4-cyclobutylpiperazin-1-yl)-2-oxoethyl]piperazin-1-yl}-6-(4-fluorophenyl)pyridazine]
O=C(CN1CCN(c2ccc(-c3cccc(F)c3)nn2)CC1)N1CCN(C2CCC2)CC1 [Compound 1004, 3-{4-[2-(4-cyclobutylpiperazin-1-yl)-2-oxoethyl]piperazin-1-yl}-6-(3-fluorophenyl)pyridazine]
O=C(CN1CCN(c2ccc(-c3ccccc3F)nn2)CC1)N1CCN(C2CCC2)CC1 [Compound 1005, 3-{4-[2-(4-cyclobutylpiperazin-1-yl)-2-oxoethyl]piperazin-1-yl}-6-(2-fluorophenyl)pyridazine]
O=C(CN1CCN(c2ccc(-c3ccc4ccccc4c3)nn2)CC1)N1CCN(C2CCC2)CC1 [Compound 1006, 3-{4-[2-(4-cyclobutylpiperazin-1-yl)-2-oxoethyl]piperazin-1-yl}-6-(2-naphthyl)pyridazine]
Cc1ccc(-c2ccc(N3CCN(CC(=O)N4CCN(C5CCC5)CC4)CC3)nn2)c(F)c1 [Compound 1007, 3-{4-[2-(4-cyclobutylpiperazin-1-yl)-2-oxoethyl]piperazin-1-yl}-6-(2-fluoro-4-methylphenyl)pyridazine]
Cc1ccc(F)c(-c2ccc(N3CCN(CC(=O)N4CCN(C5CCC5)CC4)CC3)nn2)c1 [Compound 1008, 3-{4-[2-(4-cyclobutylpiperazin-1-yl)-2-oxoethyl]piperazin-1-yl}-6-(2-fluoro-5-methylphenyl)pyridazine]
Cc1ccc(-c2ccc(N3CCN(CC(=O)N4CCN(C5CCC5)CC4)CC3)nn2)cc1F [Compound 1009, 3-{4-[2-(4-cyclobutylpiperazin-1-yl)-2-oxoethyl]piperazin-1-yl}-6-(3-fluoro-4-methylphenyl)pyridazine]
